Test results as given in patent US9072742B2, “Method of predicting a predisposition to QT prolongation” (Vanda Pharmaceuticals, Inc., priority 2009, dated 2015).
Values joined by “and” are separate entries in the source; they are usually repeats but may differ in a detail not shown here. Identical values can stand only once.

System: individuals genotyped at the rs1083338 locus (BAI3 gene)
Experiment: QT prolongation (change in QTc, Fridericia) after oral iloperidone for two weeks, by rs1083338 genotype
Format: in vivo, human
Conditions: for Odds Ratio: GG vs non-GG at rs1083338, iloperidone 24 mg/day; for High QT +test (number of individuals) / Low QT +test (number of individuals) / High QT −test (number of individuals) / Low QT −test (number of individuals): iloperidone 24 mg/day B.I.D. oral; for High QT +test (number of individuals) / Low QT +test (number of individuals): GG genotype at rs1083338; for High QT −test (number of individuals) / Low QT −test (number of individuals): genotype other than GG at rs1083338
Description: Since the QT interval changes with changes in heart rate, the QT interval is often measured as a corrected QT (QTc) interval. Any number of formulas may be employed to calculate the QTc, including, for example, the Fridericia formula (QTcF), the Bazett formula (QTcB), and the Rautaharju formula (QTp), among others. In the studies described herein, QT was calculated using the Fridericia formula. However, the present invention includes the use of any such formula or method for calculating a QTc or an uncorrected QT. Using the genotypes at the SNP loci above, it is possible, with a high degree of certainty, to predict an individual's predisposition to QT prolongation.

## COc1cc(C(C)=O)ccc1OCCCN1CCC(c2noc3cc(F)ccc23)CC1 [iloperidone, 1-[4-[3-[4-(6-fluoro-1,2-benzisoxazol-3-yl)-1-piperidinyl]propoxy]-3-methoxyphenl]ethanone]
Change threshold QT > 5 msec
  Odds Ratio: 4.21
  High QT +test (number of individuals): 39
  Low QT +test (number of individuals): seven and 7
  High QT −test (number of individuals): 78
  Low QT −test (number of individuals): 59
Change threshold QT > 15 msec
  Odds Ratio: 3.61
  High QT +test (number of individuals): 29
  Low QT +test (number of individuals): 17
  High QT −test (number of individuals): 44
  Low QT −test (number of individuals): 93
Change threshold QT > 30 msec
  Odds Ratio: 3.84
  High QT +test (number of individuals): 14
  Low QT +test (number of individuals): 32
  High QT −test (number of individuals): 14
  Low QT −test (number of individuals): 123
